Source: US11261186B2, “Biaryl derivative as GPR120 agonist” (LG CHEM, LTD., priority 2014, dated 2022)
pEC50: −log10 of the molar value.

Biological target: T1, hGPR120 (Homo sapiens, UniProt Q5NUL3)
T1 construct: expressed in transfected cells; host or cells: CHO-K1
T1 sequence (Q5NUL3 1-361): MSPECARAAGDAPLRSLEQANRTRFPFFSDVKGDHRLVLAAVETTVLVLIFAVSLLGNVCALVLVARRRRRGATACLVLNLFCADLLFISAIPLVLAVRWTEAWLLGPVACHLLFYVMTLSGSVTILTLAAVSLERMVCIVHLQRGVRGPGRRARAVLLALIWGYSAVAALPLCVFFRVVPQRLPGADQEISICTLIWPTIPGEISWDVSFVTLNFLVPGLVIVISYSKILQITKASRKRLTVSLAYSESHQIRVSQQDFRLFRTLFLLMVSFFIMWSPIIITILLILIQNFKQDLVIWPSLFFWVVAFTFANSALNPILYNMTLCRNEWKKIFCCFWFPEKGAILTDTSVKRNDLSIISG
Assay: Measurement of Activity of GPR120 Agonist (Cell-Based Assay), Calcium 5 dye fluorescence
Conditions: CHO-K1 cells expressing Ga16 and hGPR120
Summary of the method: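 After an 18 h incubation at 37 °C, the transfected CHO-K1 cells (Gα16, hGPR120) received Calcium 5 dye for 1 h; compound dilutions in 0.5% DMSO were then injected and emission at 525 nm recorded, with values given as % of the vehicle response.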

Row | pEC50 | Structure (SMILES)
1 | > 6.70 | CC(C)Sc1cccc(-c2ccc3c(c2)CCC(CCC(=O)O)S3)n1 (stereo not shown) [Example 286, 3-[6-(6-isopropylsulfanyl-pyridin-2-yl)-thiochroman-2-yl]-propionic acid]
2 | > 6.70 | O=C(O)CCC1CCc2cc(-c3cccnc3SC3CCCC3)ccc2O1 (stereo not shown) [Example 280, 3-[6-(2-cyclopentylsulfanyl-pyridin-3-yl)-chroman-2-yl]-propionic acid]
3 | > 6.70 | O=C(O)CCCOc1ccc(-c2cccc3c2OC2(CCCC2)O3)cc1 [Example 288, 4-(4-spiro[1,3-benzodioxol-2,1′-cyclopentan]-4-ylphenoxy)butanoic acid]
4 | 5.70 to 6.70 | O=C(O)CC1CCN(c2c(F)cc(-c3cncc(NC4CCCC4)n3)cc2F)CC1 [Example 357, 2-[1-[4-[6-(cyclopentylamino)pyrazin-2-yl]-2,6-difluoro-phenyl]-4-piperidyl]acetic acid]
5 | 5.70 to 6.70 | O=C(O)CCCOc1ccc(-c2cccc3c2OC2(CCCC2)O3)cc1F [Example 289, 4-(2-fluoro-4-spiro[1,3-benzodioxol-2,1′-cyclopentan]-4-yl-phenoxy)butanoic acid]
6 | 5.70 to 6.70 | O=C(O)C1CC1CNc1ccc(-c2cccnc2SC2CCCC2)cc1 (stereo not shown) [Example 211, 2-{[4-(2-cyclopentylsulfanyl-pyridin-3-yl)-phenylamino]-methyl}-cyclopropanecarboxylic acid]
7 | > 6.70 | CC(C)Sc1ncccc1-c1ccc2c(c1)CCC(CCC(=O)O)S2 (stereo not shown) [Example 270, 3-[6-(2-isopropylsulfanyl-pyridin-3-yl)-thiochroman-2-yl]-propionic acid]
8 | 5.70 to 6.70 | Cc1cc(Oc2ccc(F)c(F)c2)nc(-c2cc(F)c(N3CCC(CC(=O)O)CC3)c(F)c2)n1 [Example 608, 2-[1-[2,6-difluoro-4-[4-(3,4-fluorophenoxy)-6-methyl-pyrimidin-2-yl]phenyl]-4-piperidyl]acetic acid]
9 | > 6.70 | O=C(O)CCCOc1c(F)cc(-c2cccc(SC3CCC3)n2)cc1Cl [Example 403, 4-[2-chloro-4-(6-cyclobutylsulfanyl-pyridin-2-yl)-6-fluoro-phenoxy]-butyric acid]
10 | 5.70 to 6.70 | O=C(O)CCCOc1ccc(-c2cccc(OCC3CCC3)n2)cc1F [Example 539, 4-[4-(6-cyclobutylmethoxy-pyridin-2-yl)-2-fluoro-phenoxy]-butyric acid]
11 | 5.70 to 6.70 | CC1(C)Cc2cc(F)cc(-c3cc(F)c(OCCCC(=O)O)c(F)c3)c2N1 [Example 266, 4-[2,6-difluoro-4-(5-fluoro-2,2-dimethyl-2,3-dihydro-1H-indol-7-yl)-phenoxy]-butyric acid]
12 | > 6.70 | O=C(O)CCC1CCc2cc(-c3cccnc3SC3CCC3)ccc2O1 (stereo not shown) [Example 272, 3-[6-(2-cyclobutylsulfanyl-pyridin-3-yl)-chroman-2-yl]-propionic acid]
13 | 5.70 to 6.70 | O=C(O)CCC1CCc2cc(-c3cccnc3OCC3CC3)ccc2O1 (stereo not shown) [Example 276, 3-[6-(2-cyclopropylmethoxy-pyridin-3-yl)-chroman-2-yl]-propionic acid]
14 | > 6.70 | O=C(O)CC1CCN(c2c(F)cc(-c3cccnc3OCC3CC3)cc2F)CC1 [Example 121, 2-[1-[4-[2-(cyclopropylmethoxy)-3-pyridyl]-2,6-difluoro-phenyl]-4-piperidyl]acetic acid]
15 | > 6.70 | CC(C)Oc1ncccc1-c1cc(F)c(C(C)CCCC(=O)O)c(F)c1 (stereo not shown) [Example 46, 5-[2,6-difluoro-4-(2-isopropoxy-3-pyridyl)phenyl]hexanoic acid]
16 | > 6.70 | O=C(O)CCc1ccc2cc(-c3cccnc3OC3CCCC3)ccc2c1 [Example 150, 3-[6-(2-cyclopentyloxy-pyridin-3-yl)-naphthalen-2-yl]-propanoic acid]
17 | > 6.70 | CC(C)Sc1cccc(-c2cc(F)c(OCc3cc(O)no3)c(F)c2)n1 [Example 70, 5-[[2,6-difluoro-4-(6-isopropylsulfanyl-2-pyridyl)phenoxy]methyl]isoxazol-3-ol]
18 | 5.70 to 6.70 | CC(C)Oc1ncccc1-c1cc(F)c(N2CCC(CC(=O)O)CC2)c(F)c1 [Example 119, 2-[1-[2,6-difluoro-4-(2-isopropoxy-3-pyridyl)phenyl]-4-piperidyl]acetic acid]
19 | > 6.70 | O=C(O)CCC1CCc2cc(-c3cccnc3SC3CCC3)ccc2S1 (stereo not shown) [Example 275, 3-[6-(2-cyclobutylsulfanyl-pyridin-3-yl)-thiochroman-2-yl]-propionic acid]
20 | > 6.70 | CN(CCCC(=O)O)c1c(F)cc(-c2cccc(OCC3CCC3)n2)cc1F [Example 522, 4-{[4-(6-cyclobutylmethoxy-pyridin-2-yl)-2,6-difluoro-phenyl]-methyl-amino}-butyric acid]
21 | > 6.70 | CCCCc1cncc(-c2cc(F)c(N3CCC(CC(=O)O)CC3)c(F)c2)n1 [Example 369, 2-[1-[4-(6-butylpyrazin-2-yl)-2,6-difluoro-phenyl]-4-piperidyl]acetic acid]
22 | > 6.70 | O=C(O)CC1CCN(c2c(F)cc(-c3nccc(Oc4ccc(F)cc4)n3)cc2F)CC1 [Example 511, 2-[1-[4-[4-(4-fluorophenoxy)pyrimidin-2-yl]-2,6-difluoro-phenyl]-4-piperidyl]acetic acid]
23 | 4.70 to 5.70 | O=C(O)CC1CCN(c2c(F)cc(-c3ccc(COCC4CC4)s3)cc2F)CC1 [Example 569, {1-[4-(5-cyclomethoxymethyl-thiophen-2-yl)-2,6-difluoro-phenyl]-piperidin-4-yl}-acetic acid]
24 | 4.70 to 5.70 | O=C(O)COCC(F)(F)c1ccc(-c2cccnc2SC2CCC2)cc1 [Example 173, {2-[4-(2-cyclobutylsulfanyl-pyridin-3-yl)-phenyl]-2,2-difluoro-ethoxy}-acetic acid]
25 | > 6.70 | CC(C)Sc1ncccc1-c1cc(F)c(OCc2cc(O)no2)c(F)c1 [Example 68, 5-[[2,6-difluoro-4-(2-isopropylsulfanyl-3-pyridyl)phenoxy]methyl]isoxazol-3-ol]
26 | 5.70 to 6.70 | COCCCOc1cc(C)nc(-c2cc(F)c(N3CCC(CC(=O)O)CC3)c(F)c2)n1 [Example 601, (1-{2,6-difluoro-4-[4-(3-methoxy-propoxy)-6-methyl-pyrimidin-2-yl]-phenyl}-piperidin-4-yl)-acetic acid]
27 | > 6.70 | CN(CCCC(=O)O)c1c(F)cc(-c2cccc(OC3CCCC3)c2)cc1F [Example 525, 4-[(3′-cyclopentyloxy-3,5-difluoro-biphenyl-4-yl)-methyl-amino]-butyric acid]
28 | > 6.70 | COc1ccc2c(ccn2-c2cc(F)c(OCCCC(=O)O)c(F)c2)c1 [Example 468, 4-[2,6-difluoro-4-(5-methoxyindol-1-yl)phenoxy]butanoic acid]
29 | > 6.70 | O=C(O)CCCOc1c(F)cc(-c2csc(COCC3CC3)c2)cc1F [Example 566, 4-[4-(5-cyclopropylmethoxymethyl-thiophen-3-yl)-2,6-difluoro-phenoxy]-butanoic acid]

Row | Structure (SMILES) | pEC50
30 | CC(C)(CCCC(=O)O)c1ccc(-c2cccnc2SC2CCC2)cc1 [Example 165, 5-[4-(2-cyclobutylsulfanyl-pyridin-3-yl)-phenyl]-5-methyl-hexanoic acid] | > 6.70
31 | O=C(O)CC1CCN(c2c(F)cc(-c3cccnc3OC3CCCC3)cc2F)CC1 [Example 102, 2-[1-[4-[2-(cyclopentoxy)-3-pyridyl]-2,6-difluoro-phenyl]-4-piperidyl]acetic acid] | > 6.70
32 | O=C(O)CC1CCN(c2c(F)cc(-c3ccc(Cl)c(OC4CCC4)n3)cc2F)CC1 [Example 311, 2-[1-[4-[5-chloro-6-(cyclobutoxy)-2-pyridyl]-2,6-difluoro-phenyl]-4-piperidyl]acetic acid] | 5.70 to 6.70
33 | Oc1cc(COc2c(F)cc(-c3cccnc3OC3CCC3)cc2F)on1 [Example 76, 5-[[4-[2-(cyclobutoxy)-3-pyridyl]-2,6-difluoro-phenoxy]methyl]isoxazol-3-ol] | > 6.70
34 | CN(CCCC(=O)O)c1c(F)cc(-c2csc(OC3CCC3)n2)cc1F [Example 486, 4-[4-[2-(cyclobutoxy)thiazol-4-yl]-2,6-difluoro-N-methyl-anilino]butanoic acid] | > 6.70
35 | O=C(O)CCCOc1c(F)cc(-c2cc(OC3CCC3)cc(Cl)n2)cc1F [Example 393, 4-[4-[6-chloro-4-(cyclobutoxy)-2-pyridyl]-2,6-difluoro-phenoxy]butanoic acid] | > 6.70
36 | Cc1cc(OC2CCC2)nc(-c2cc(F)c(OCCCC(=O)O)c(F)c2)c1 [Example 395, 4-[4-[6-(cyclobutoxy)-4-methyl-2-pyridyl]-2,6-difluoro-phenoxy]butanoic acid] | > 6.70
37 | Oc1cc(CSc2ccc(-c3cccnc3OC3CCCC3)cc2)on1 [Example 81, 5-[[4-[2-(cyclopentoxy)-3-pyridyl]phenyl]sulfanylmethyl]isoxazol-3-ol] | > 6.70
38 | O=C(O)CCCOc1c(F)cc(-c2ccnc(OC3CCC3)n2)cc1F [Example 421, 4-[4-(2-cyclobutoxy-pyrimidin-4-yl)-2,6-difluoro-phenoxy]-butyric acid] | > 6.70
39 | O=C(O)CCCCNc1c(F)cc(-c2cccnc2OC2CCCC2)cc1F [Example 94, 5-[4-[2-(cyclopentoxy)-3-pyridyl]-2,6-difluoro-anilino]pentanoic acid] | > 6.70
40 | Cc1cc(-c2cc(F)c(OCCCC(=O)O)c(Cl)c2)nc(OC2CCC2)n1 [Example 392, 4-[2-chloro-4-[2-(cyclobutoxy)-6-methyl-pyrimidin-4-yl]-6-fluoro-phenoxy]butanoic acid] | > 6.70
